What was measured:
E. Coli cell line, DH5α = assay: Antibiotic activity of tobramycin in solution, cochleates and nano-cochleates (colony counting); assay type: cell-based; details: 0.5 μg/ml, 37° C., 24 hrs
Protocol: FIG. 9. Antibiotic activity of tobramycin formulated in solution, cochleates and nano-cochleates. The drug of various doses were added to E. Coli prior to incubation at 37° C., followed by counting of the colonies. Tobramycin was selected as a model drug to examine the capability of cochelates and nano-cochleates to deliver hydrophilic drugs across cell membranes because the antibiotic function of tobramycin relies on its binding to ribosomes inside of cells. In other words, tobramycin's antibiotic activity reflects internalization of the drug into the cells. For this purpose, tobramycin-loaded cochleates and nano-cochleates prepared as in Example 2 were incubated with E. Coli at various doses. As a control, a tobramycin solution was also incubated with E. Coli under identical conditions. Experimentally, one drop of E. Coli cell line, DH5α, was added to 2 ml LB Broth solution and incubated at 37° C. for 24 hrs to prepare 1:10 DH5α culture solution. Then, 5 ul of the DH5α culture solution was diluted to 2 ml and tobramycin was added in the form of cochleates and nano-cochleates at the final concentrations of 0, 0.5, 1.0, 2.5, and 5.0 μg/ml, respectively. The tobramycin-added cell cultures were incubated at 37° C., with shaking at 200 rpm, for 24 hrs. […]

[1] = Loading capacity of cochleates for molecules as bridging agents (UV absorption / HPLC); assay type: physicochemical; details: with the lipid amount of column Lipids (mg): 5 mg for TAPS, 38.11 mg for Tobramycine
Protocol: Loading capacities of the new cochelates and nano-cochleates for TAS and tobramycin were determined. For TAS, known amounts of cochleates or nano-cochleates were first dissolved with chloroform, then added with water (pH=2), followed by strong shaking. The water phase was separated hereafter, and the same procedure was repeated two more times. The water phases collected three times were combined. The concentration of the extract was determined by UV absorption at 380 nm. […] The loading amount was determined based on the decreased concentration in the supernatant after cochleate formation. For mobile phase, 2.0 g of tris (hydroxymethyl) aminomethan was first dissolved with 800 ml of water, followed by addition of 20 ml of 1N H2SO4 and acetanitrile to a total volume of 2000 ml. For detectability, a solution of 2,4-dinitrofluourobene (10 mg/ml in alcohol) was prepared within 5 days prior to use and refrigerated. A water solution of tris (hydroxymethyl) aminomethane (15 mg/ml) was also prepared as a stock solution. Within 4 hours of analysis, this stock solution, 40 ml, was diluted with dimethyl sulfoxide (DMSO) to 200 ml. […] For the supernatant (the sample to be measured), 1 ml of 5.5 mg/ml of tobramycin solution was added into a liposome suspension with a lipid-to-drug ratio of 1:5. […]

NC[C@H]1O[C@H](O[C@H]2[C@H](O)[C@@H](O[C@H]3O[C@H](CO)[C@@H](O)[C@H](N)[C@H]3O)[C@H](N)C[C@@H]2N)[C@H](N)C[C@@H]1O [Tobramycine, tobramycin]
antibiotic activity of drug solution relative to large cochleates (E. Coli cell line, DH5α): 75 times
antibiotic activity of drug solution relative to nano-cochleates (E. Coli cell line, DH5α): slightly higher
Drug (mg) loaded in cochleates [1]: 5.5 mg
